Among the data in patent publication US9433217B2, “Methods and compositions for introduction of exogenous dsRNA into plant cells” (Syngenta Participations AG, priority 2011, dated 2016) are phenotype values, retold here.

Assay type in all cases: in vivo
For one data set, the system named is NtPDS transcript. Nature of the data set: Silencing of NtPDS transcript in tobacco, qPCR and phenotype. As to conditions: leaves of dsRNA treated tobacco plants. Here is the method:
The tobacco gene encoding phytoene desaturase was evaluated for silencing using dsRNA constructs in combination with BR. […] The NtPDS dsRNA molecule (SEQ ID NO 10:SEQ ID NO 11) used in this embodiment is a double stranded RNA version of SEQ ID NO 4.
Similar to Example 3, once germinated and grown for 3-4 weeks, three tobacco plants were chosen for treatment for either the dsRNA or the control formulation. Here, the control formulation contained BR and water alone. […] As in Examples 2 and 3, the silencing efficiencies were calculated and are shown in the table below, where dsPDS is dsRNA from NtPDS.

Data set [1] relates to maize glutamine synthetase. The experiment in a line: Silencing of maize glutamine synthetase, qPCR of leaf samples and phenotype. Conditions: dsRNA treated maize plants, 2-3 weeks after treatment. The protocol: The Zma-GS dsRNA molecule (SEQ ID NO 7:SEQ ID NO 8) used in this embodiment is a double stranded RNA version of SEQ ID NO 2. Methods for formulation of dsRNA and control solutions, plant growth conditions, and application of RNAi formulation were as described in the above example, with the exception that another control formulation was added with only Brassinosteroid at 0.1 micromolar.
Results were evaluated from leaf samples taken 2-3 weeks after treatment. Four plants were examined from each treatment group. […] Since glutamine synthetase is a natively expressed gene, qPCR analysis was performed to calculate silencing efficiency. qPCR was performed using the Applied Biosystems 7900HT Fast Real-Time PCR System. Silencing efficiency was calculated according to the publication Analysis of Relative Gene Expression Data Using Real-Time Quantitative PCR and the 2^−ΔΔCt Method. Methods (2001) 25:402-408.

A further data set has as its system NtFtsH transcript. Nature of the data set: Silencing of NtFtsH transcript in tobacco, qPCR and phenotype. Conditions: leaves of dsRNA treated tobacco plants. Here is the method: The tobacco gene encoding Filamentation temperature-sensitive H (NtFtsH) protease was evaluated for silencing using dsRNA constructs in combination with BR. […] The NtFtsH protease dsRNA molecule (SEQ ID NO 9:SEQ ID NO 10) used in this embodiment is a double stranded version of SEQ ID NO. 3.
Once germinated, tobacco plants were transplanted to new soil and grown for an additional 3-4 weeks. Three tobacco plants were chosen for treatment for either the dsRNA or the control formulation. The treatments were applied using methods similar to those described in Example 2. Here, the control formulation contained ZsGreen dsRNA. […] As in Example 2, the silencing efficiencies were calculated and are shown in the table below, where dsNtFtsH is dsRNA from NtFtsH protease and dsZsGreen is the dsRNA of ZsGreen: […]

In the case of “dsPDS: NtPDS dsRNA, double stranded RNA version of SEQ ID NO 4”, the phenotype entry with NtPDS transcript is listed as “bleaching phenotype was observed”. As for “dsGS: Zma-GS dsRNA (SEQ ID NO 7:SEQ ID NO 8), double stranded RNA version of SEQ ID NO 2”, the phenotype entry in data set [1] is “bleaching was observed”.

B1: dsNtFtsH: NtFtsH protease dsRNA (SEQ ID NO 9:SEQ ID NO 10), double stranded version of SEQ ID NO. 3 (nucleic acid, listed as Nicotiana tabacum)
chain 1: CAAAUGGCAGUUGCACUUGGUGAAAGGGUUGCUGAGGAGGUUAUUUUUGGACAAGAUAACGUAACAACUGGGGCAUCUAACGAUUUCAUGCAAGUUUCACGAGUGGCAAGGCAGAUGGUUGAGAGAUUAGGGUUCAGCAAAAAGAUUGGACAAGUUGCCAUUGGAGGAGGUGGAGGAAAUCCUUUCCUAGGUCAACAGAUGUCAACCCAGAAAGACUACUCCAUGGCUACAGCCGAUGUGGUUGAUGCUGAAGUAAGGGAAUUGGUUGAAAGAGCAUAUGAAAGGGCAACAGAGAUUAUCACAACACACAUUGACAUCCUACACAAGCUUGCUCAGCUGUUGAUAGAGAAAGAAACUGUUGAUGGUGAAGAGUUCAUGAGCCUUUUCAUCGAUGG
chain 2: GUUUACCGUCAACGUGAACCACUUUCCCAACGACUCCUCCAAUAAAAACCUGUUCUAUUGCAUUGUUGACCCCGUAGAUUGCUAAAGUACGUUCAAAGUGCUCACCGUUCCGUCUACCAACUCUCUAAUCCCAAGUCGUUUUUCUAACCUGUUCAACGGUAACCUCCUCCACCUCCUUUAGGAAAGGAUCCAGUUGUCUACAGUUGGGUCUUUCUGAUGAGGUACCGAUGUCGGCUACACCAACUACGACUUCAUUCCCUUAACCAACUUUCUCGUAUACUUUCCCGUUGUCUCUAAUAGUGUUGUGUGUAACUGUAGGAUGUGUUCGAACGAGUCGACAACUAUCUCUUUCUUUGACAACUACCACUUCUCAAGUACUCGGAAAAGUAGCUACC
modifications: Sense strand of SEQIDNO3 (1)..(395); Complement of SEQIDNO9 (1)..(395)
As to B1, the phenotype result in the data set with NtFtsH transcript is “bleaching phenotype was observed”.
